Measured values published in patent US12516046B2, “2-oxo-oxazolidine-5-carboxamides as NAV1.8 inhibitors” (Merck Sharp & Dohme LLC, priority 2020, dated 2026).

Molecular target: human Nav1.8 (Homo sapiens (Human), UniProt Q9Y5Y9)
Experiment: Nav1.8 Qube® Assay (automated 384-well patch-clamp)
Format: cell-based
Details: human Nav1.8 channels stably expressed in HEK 293 cells
Source text: Qube® Assay Experimental Procedure

Chain of human Nav1.8 (Q9Y5Y9 whole entry): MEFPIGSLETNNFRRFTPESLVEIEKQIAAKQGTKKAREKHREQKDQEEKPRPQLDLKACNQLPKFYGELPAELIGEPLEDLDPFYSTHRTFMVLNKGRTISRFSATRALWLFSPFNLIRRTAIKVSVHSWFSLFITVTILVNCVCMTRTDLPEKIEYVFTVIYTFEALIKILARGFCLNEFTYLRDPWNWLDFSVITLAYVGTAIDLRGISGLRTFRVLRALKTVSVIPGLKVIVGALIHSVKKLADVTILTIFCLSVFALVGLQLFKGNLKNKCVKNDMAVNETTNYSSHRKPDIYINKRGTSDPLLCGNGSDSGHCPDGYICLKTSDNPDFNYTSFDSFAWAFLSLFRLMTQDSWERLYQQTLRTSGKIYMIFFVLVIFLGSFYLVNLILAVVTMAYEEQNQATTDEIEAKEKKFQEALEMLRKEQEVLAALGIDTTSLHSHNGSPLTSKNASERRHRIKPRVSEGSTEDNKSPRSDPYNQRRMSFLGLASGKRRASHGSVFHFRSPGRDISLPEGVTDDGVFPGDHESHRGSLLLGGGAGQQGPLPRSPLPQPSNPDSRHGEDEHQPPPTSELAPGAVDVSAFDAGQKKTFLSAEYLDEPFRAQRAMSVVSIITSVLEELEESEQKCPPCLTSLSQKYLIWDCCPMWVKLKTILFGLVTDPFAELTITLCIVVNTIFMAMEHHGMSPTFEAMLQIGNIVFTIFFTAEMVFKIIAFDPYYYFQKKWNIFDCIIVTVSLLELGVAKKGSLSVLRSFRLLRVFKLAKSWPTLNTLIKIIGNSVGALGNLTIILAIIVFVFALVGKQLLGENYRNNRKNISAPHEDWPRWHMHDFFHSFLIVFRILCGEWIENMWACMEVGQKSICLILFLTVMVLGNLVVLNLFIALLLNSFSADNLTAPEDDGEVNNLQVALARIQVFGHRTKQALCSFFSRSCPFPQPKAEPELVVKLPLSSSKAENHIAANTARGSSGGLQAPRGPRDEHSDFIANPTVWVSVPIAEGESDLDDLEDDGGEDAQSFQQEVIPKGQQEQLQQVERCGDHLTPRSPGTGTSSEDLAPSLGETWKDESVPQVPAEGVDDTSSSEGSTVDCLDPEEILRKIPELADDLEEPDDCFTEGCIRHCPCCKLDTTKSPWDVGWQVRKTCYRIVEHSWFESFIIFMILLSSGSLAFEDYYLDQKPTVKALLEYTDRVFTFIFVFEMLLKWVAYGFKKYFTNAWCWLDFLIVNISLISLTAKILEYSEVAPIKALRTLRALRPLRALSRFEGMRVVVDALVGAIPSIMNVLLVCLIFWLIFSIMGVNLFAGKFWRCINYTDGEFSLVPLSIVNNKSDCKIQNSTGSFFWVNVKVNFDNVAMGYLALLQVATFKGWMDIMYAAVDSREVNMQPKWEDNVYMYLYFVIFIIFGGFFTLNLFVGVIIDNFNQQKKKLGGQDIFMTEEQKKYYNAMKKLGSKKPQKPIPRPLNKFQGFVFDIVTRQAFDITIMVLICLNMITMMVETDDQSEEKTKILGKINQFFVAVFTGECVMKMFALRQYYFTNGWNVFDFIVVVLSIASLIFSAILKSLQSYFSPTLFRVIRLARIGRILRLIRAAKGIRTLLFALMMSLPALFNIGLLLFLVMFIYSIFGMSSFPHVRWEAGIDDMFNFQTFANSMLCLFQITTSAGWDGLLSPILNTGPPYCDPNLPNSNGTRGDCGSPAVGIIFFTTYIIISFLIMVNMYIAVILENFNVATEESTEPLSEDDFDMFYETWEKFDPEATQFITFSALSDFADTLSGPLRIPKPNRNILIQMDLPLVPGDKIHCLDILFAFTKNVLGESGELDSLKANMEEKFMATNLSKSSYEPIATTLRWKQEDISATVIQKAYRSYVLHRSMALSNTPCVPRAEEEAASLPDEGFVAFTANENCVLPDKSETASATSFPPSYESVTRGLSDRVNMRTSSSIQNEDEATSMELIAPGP

How did the IC50 turn out when `O=C1NC[C@@H](C(=O)NC(c2ccc(F)c(Cl)c2)c2csc(C(F)(F)F)n2)O1` (single isomer, unassigned) [Example 44B, (S)—N—((R or S)-(3-chloro-4-fluorophenyl)(2-(trifluoro-methyl)thiazol-4-yl)methyl)-2-oxooxazolidine-5-carboxamide] was run?
Its IC50 is 17 nM.

`Cc1cc(C(NC(=O)[C@@H]2CNC(=O)O2)c2ccc(Cl)cc2)ccc1Cl` (single isomer, unassigned) [Example 46A, (S)-N-((R or S)-(4-chloro-3-methylphenyl)(4-chlorophenyl)methyl)-2-oxooxazolidine-5-carboxamide] was tested. Which IC50 did it give?
The IC50 was 0.6 nM.

`Cc1cc(C(NC(=O)[C@@H]2CNC(=O)O2)c2ccc(Cl)cc2)ccc1Cl` (single isomer, unassigned) [Example 46B, (S)-N-((R or S)-(4-chloro-3-methylphenyl)(4-chlorophenyl)methyl)-2-oxooxazolidine-5-carboxamide] was tested. Which IC50 did it give?
Its IC50 is 1.8 nM.

`O=C1NC[C@@H](C(=O)NC(c2ccc(Cl)cc2)c2ccc(Cl)cc2OC(F)(F)F)O1` (single isomer, unassigned) [Example 47A, (S)-N-((R or S)-(4-chloro-2-(trifluoromethoxy)phenyl)(4-chlorophenyl)methyl)-2-oxooxazolidine-5-carboxamide] was tested. Which IC50 did it give?
The IC50 was 1.6 nM.

For `O=C1NC[C@@H](C(=O)NC(c2ccc(Cl)cc2)c2ccc(Cl)cc2OC(F)(F)F)O1` (single isomer, unassigned) [Example 47B, (S)-N-((R or S)-(4-chloro-2-(trifluoromethoxy)phenyl)(4-chlorophenyl)-methyl)-2-oxooxazolidine-5-carboxamide], which IC50 is on record?
Its IC50 is 17 nM.

For `O=C1NC[C@@H](C(=O)NC(c2ccc(OC(F)F)cc2)c2ccc(F)c(Cl)c2)O1` (single isomer, unassigned) [Example 48A, (S)-N-((R or S)-(3-chloro-4-fluorophenyl)(4-(difluoromethoxy)phenyl)methyl)-2-oxooxazolidine-5-carboxamide], which IC50 is on record?
Its IC50 is 2.7 nM.

With `O=C1NC[C@@H](C(=O)NC(c2ccc(OC(F)F)cc2)c2ccc(F)c(Cl)c2)O1` (single isomer, unassigned) [Example 48B, (S)-N-((R or S)-(3-chloro-4-fluorophenyl)(4-(difluoromethoxy)phenyl)methyl)-2-oxooxazolidine-5-carboxamide] as the molecule, how does the IC50 read?
The IC50 was 6.8 nM.

Which IC50 does the source give for `O=C1NC[C@@H](C(=O)NC(c2ccc(F)c(Cl)c2)c2cccc(C(F)(F)F)n2)O1` (single isomer, unassigned) [Example 49A, (S)-N-((R or S)-(3-chloro-4-fluorophenyl)(6-(trifluoromethyl)pyridin-2-yl)methyl)-2-oxooxazolidine-5-carboxamide] here?
Its IC50 is 8.8 nM.

Which IC50 does the source give for `O=C1NC[C@@H](C(=O)NC(c2ccc(F)c(Cl)c2)c2cccc(C(F)(F)F)n2)O1` (single isomer, unassigned) [Example 49B, (S)-N-((R or S)-(3-chloro-4-fluorophenyl)(6-(trifluoromethyl)pyridin-2-yl)methyl)-2-oxooxazolidine-5-carboxamide] here?
The IC50 was 54 nM.

With `O=C1NC[C@@H](C(=O)NC(c2ccc(OCC(F)(F)F)nc2)c2ccc(F)c(Cl)c2F)O1` (single isomer, unassigned) [Example 50A, (S)—N—((R or S)-(3-chloro-2,4-difluorophenyl)(6-(2,2,2-trifluoroethoxy)pyridin-3-yl)methyl)-2-oxo-oxazolidine-5-carboxamide] as the molecule, how does the IC50 read?
Its IC50 is 1.6 nM.

Which IC50 does the source give for `O=C1NC[C@@H](C(=O)NC(c2ccc(OCC(F)(F)F)nc2)c2ccc(F)c(Cl)c2F)O1` (single isomer, unassigned) [Example 50B, (S)—N—((R or S)-(3-chloro-2,4-difluorophenyl)(6-(2,2,2-trifluoroethoxy)pyridin-3-yl)methyl)-2-oxooxazolidine-5-carboxamide] here?
The IC50 was 48 nM.

For `O=C1NC[C@@H](C(=O)NC(c2ccc(OC(F)(F)F)c(Cl)c2)c2coc(C(F)(F)F)n2)O1` (single isomer, unassigned) [Example 51A, (S)-N-((R or S)-(3-chloro-4-(trifluoro-methoxy)phenyl)(2-(trifluoromethyl)oxazol-4-yl)methyl)-2-oxooxazolidine-5-carboxamide], which IC50 is on record?
The IC50 was 5.3 nM.

Which IC50 does the source give for `O=C1NC[C@@H](C(=O)NC(c2ccc(OC(F)(F)F)c(Cl)c2)c2coc(C(F)(F)F)n2)O1` (single isomer, unassigned) [Example 51B, (S)-N-((R or S)-(3-chloro-4-(trifluoro-methoxy)phenyl)(2-(trifluoromethyl)oxazol-4-yl)methyl)-2-oxooxazolidine-5-carboxamide] here?
Its IC50 is 3.7 nM.

How did the IC50 turn out when `O=C1NC[C@@H](C(=O)NC(c2ccc(OC(F)(F)F)c(Cl)c2)c2ccnc(C(F)(F)F)n2)O1` (single isomer, unassigned) [Example 52A, (S)-N-((R or S)-(3-chloro-4-(trifluoromethoxy)phenyl)(2-(trifluoro-methyl)pyrimidin-4-yl)methyl)-2-oxooxazolidine-5-carboxamide] was run?
The IC50 was 7.9 nM.

For `O=C1NC[C@@H](C(=O)NC(c2ccc(OC(F)(F)F)c(Cl)c2)c2ccnc(C(F)(F)F)n2)O1` (single isomer, unassigned) [Example 52B, (S)-N-((R or S)-(3-chloro-4-(trifluoromethoxy)phenyl)(2-(trifluoro-methyl)pyrimidin-4-yl)methyl)-2-oxooxazolidine-5-carboxamide], which IC50 is on record?
Its IC50 is 13 nM.

For `O=C1NC[C@@H](C(=O)NC(c2ccc(OC(F)(F)F)c(Cl)c2)c2cnn(C(F)(F)F)c2)O1` (single isomer, unassigned) [Example 53A, (S)-N-((R or S)-(3-chloro-4-(trifluoro-methoxy)phenyl)(1-(trifluoromethyl)-1H-pyrazol-4-yl)methyl)-2-oxooxazolidine-5-carboxamide], which IC50 is on record?
The IC50 was 22 nM.

`O=C1NC[C@@H](C(=O)NC(c2ccc(OC(F)(F)F)c(Cl)c2)c2cnn(C(F)(F)F)c2)O1` (single isomer, unassigned) [Example 53B, (S)-N-((R or S)-(3-chloro-4-(trifluoro-methoxy)phenyl)(1-(trifluoromethyl)-1H-pyrazol-4-yl)methyl)-2-oxooxazolidine-5-carboxamide] was tested. Which IC50 did it give?
Its IC50 is 1.2 nM.

With `N#Cc1ccc(C(NC(=O)[C@@H]2CNC(=O)O2)c2cnc(C(F)(F)F)c(Cl)c2)cc1Cl` (single isomer, unassigned) [Example 54A, (S)-N-((R or S)-(3-chloro-4-cyano-phenyl)(5-chloro-6-(trifluoromethyl)pyridin-3-yl)methyl)-2-oxooxazolidine-5-carboxamide] as the molecule, how does the IC50 read?
The IC50 was 1.7 nM.

Which IC50 does the source give for `N#Cc1ccc(C(NC(=O)[C@@H]2CNC(=O)O2)c2cnc(C(F)(F)F)c(Cl)c2)cc1Cl` (single isomer, unassigned) [Example 54B, (S)-N-((R or S)-(3-chloro-4-cyano-phenyl)(5-chloro-6-(trifluoromethyl)pyridin-3-yl)methyl)-2-oxooxazolidine-5-carboxamide] here?
The IC50 was 7.2 nM.

`COc1cc(Cl)ccc1C(NC(=O)[C@@H]1CNC(=O)O1)c1ccc(F)cc1` (single isomer, unassigned) [Example 55A, (S)—N—((R or S)-(4-chloro-2-methoxyphenyl)(4-fluorophenyl)-methyl)-2-oxooxazolidine-5-carboxamide] was tested. Which IC50 did it give?
The IC50 was 19 nM.

With `COc1cc(Cl)ccc1C(NC(=O)[C@@H]1CNC(=O)O1)c1ccc(F)cc1` (single isomer, unassigned) [Example 55B, (S)—N—((R or S)-(4-chloro-2-methoxyphenyl)(4-fluorophenyl)methyl)-2-oxooxazolidine-5-carboxamide] as the molecule, how does the IC50 read?
The IC50 was 4.7 nM.
